Target: T1, cathepsin L protease (Homo sapiens, UniProt P07711)
T1 construct: purchased BPS Bioscience
Assay: Protease inhibition, cell-free fluorogenic kit (BPS Bioscience)
Format: biochemical

T1 sequence (P07711 114-333): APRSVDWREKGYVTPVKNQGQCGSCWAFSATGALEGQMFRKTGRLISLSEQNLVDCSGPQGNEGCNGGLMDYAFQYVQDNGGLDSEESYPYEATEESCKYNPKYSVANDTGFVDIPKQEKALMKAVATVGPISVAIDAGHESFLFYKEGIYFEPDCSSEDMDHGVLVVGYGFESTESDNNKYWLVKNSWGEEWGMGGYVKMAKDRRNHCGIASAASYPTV

For `CC(C)C[C@H](NC(=O)[C@H]1O[C@@H]1C(=O)O)C(=O)NCCCCN=C(N)N` [Composition E-64, E-64], the Percentage inhibition (0.0001 μM) was −15.5% and the Percentage inhibition (0.001 μM) was −1.1 ^ %.
